Assay results taken from patent publication US9564604B2, “Fused polycyclic aromatic compounds, organic semiconductor material and thin film including the same, and method for producing an organic semiconductor device” (Nippon Kayaku Kabushiki Kaisha, priority 2012, dated 2017).

Key:
[1] = CV (cyclic voltammetry) measurement in dichloromethane; assay type: physicochemical; conditions: n-BuN4PF6 0.1 M, Pt electrodes, silver-silver chloride reference, 100 mV/sec
Experimental: CV measurement was conducted by using dichloromethane as solvent, tetrabutylammonium hexafluorophosphate (n-BuN4PF6, 0.1 M) as a supporting electrolyte, platinum wires as working electrodes and counter electrodes, and a silver-silver chloride electrodes as reference electrodes, and by sweeping the electric potential at a rate of 100 mV/sec. In all Compounds 101, 110, 112, 136, 201, 210, 212, 214, and 236, two pairs of oxidation-reduction waves were observed.

[2] = Solubility measurement in chloroform (saturated solution); assay type: physicochemical; conditions: mass percent concentration of saturated chloroform solution
Experimental: Solubility was measured by using chloroform as solvent.

Row | SMILES | first half-wave reduction potential [1] [V] | second half-wave reduction potential [1] [V] | Solubility in chloroform [2] [w/w %]
1 | CCCCCCCCc1cc2c(s1)c(=C(C#N)C#N)cc1c3cc(CCCCCCCC)sc3c(=C(C#N)C#N)cc21 [Compound 210] | 0.06 | −0.28 | –
2 | CCCCCCCCCCCCc1cc2c(s1)c(=C(C#N)C#N)cc1c3cc(CCCCCCCCCCCC)sc3c(=C(C#N)C#N)cc21 [Compound 212] | 0.06 | −0.28 | –
3 | CCCCCCCCCCCCc1cc2c(=C(C#N)C#N)cc3c(cc(=C(C#N)C#N)c4cc(CCCCCCCCCCCC)sc43)c2s1 [Compound 112] | 0.06 | −0.28 | 0.22
4 | N#CC(C#N)=c1cc2c3ccsc3c(=C(C#N)C#N)cc2c2ccsc12 [Compound 201] | 0.06 | −0.28 | –
5 | CCCCCCCCc1cc2c(=C(C#N)C#N)cc3c(cc(=C(C#N)C#N)c4cc(CCCCCCCC)sc43)c2s1 [Compound 110] | 0.06 | −0.28 | 0.52
6 | CC(C)[Si](c1cc2c(=C(C#N)C#N)cc3c(cc(=C(C#N)C#N)c4cc([Si](C(C)C)(C(C)C)C(C)C)sc43)c2s1)(C(C)C)C(C)C [Compound 136] | 0.06 | −0.28 | –
7 | CCCCCCCCCCCCCCCCc1cc2c(s1)c(=C(C#N)C#N)cc1c3cc(CCCCCCCCCCCCCCCC)sc3c(=C(C#N)C#N)cc21 [Compound 214] | 0.06 | −0.28 | –
